The test system of this experiment is P388 leukemia ip, CD2F1 mice, survival T/C. Nature of the experiment: NCI In Vivo Anticancer Drug Screen. Data for tumor model P388 Leukemia (intraperitoneal) in CD2F1 (CDF1) mice. The following applies: endpoint: median survival time, higher = longer survival. Put shortly: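 Mice carrying the transplanted tumor received test compound or vehicle. Survival was recorded in each group, and the value is the treated-group measurement divided by that of the vehicle-treated control group.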

Setting [1] is: dose: 50.0 mg/kg/injection, schedule: Q01DX005 (ip), vehicle: saline with Tween-80.
Setting [2] is: dose: 100.0 mg/kg/injection, schedule: Q01DX005 (ip), vehicle: saline with Tween-80.
Where [3] appears, read: dose: 200.0 mg/kg/injection, schedule: Q01DX005 (ip), vehicle: saline with Tween-80.
[4] abbreviates: dose: 50.0 mg/kg/injection, schedule: Q01DX009 (ip), vehicle: saline with Tween-80.
Where [5] appears, read: dose: 50.0 mg/kg/injection, schedule: Q01DX009 (ip), vehicle: Klucel (hydroxypropylcellulose) (HPC).
The mark [6] stands for this setting: dose: 100.0 mg/kg/injection, schedule: Q01DX009 (ip), vehicle: Klucel (hydroxypropylcellulose) (HPC).
Where [7] appears, read: dose: 200.0 mg/kg/injection, schedule: Q01DX009 (ip), vehicle: Klucel (hydroxypropylcellulose) (HPC).
The mark [8] stands for this setting: dose: 12.5 mg/kg/injection, schedule: Q01DX005 (ip), vehicle: saline.
[9] abbreviates: dose: 25.0 mg/kg/injection, schedule: Q01DX005 (ip), vehicle: saline.
[10] abbreviates: dose: 60.0 mg/kg/injection, schedule: Q01DX005 (ip), vehicle: saline with Tween-80.
The mark [11] stands for this setting: dose: 120.0 mg/kg/injection, schedule: Q01DX005 (ip), vehicle: saline with Tween-80.
[12] abbreviates: dose: 50.0 mg/kg/injection, schedule: Q01DX005 (ip), vehicle: saline.

The structures appear in SMILES notation. Several values for one entry are separate records, joined by “and”; a condition that tells them apart may be missing. Equal values may be shown once. Toxic doses and inconclusive results are not listed. Peptide text beside a SMILES is read from it. * marks the point of attachment. Tos = Cc1ccc(S(=O)(=O)*)cc1; Bn = c1ccc(C*)cc1

With `Cc1ccc(S(=O)(=O)NC(CSCc2ccccc2)C(=O)NC(Cc2ccc(O)cc2)C(=O)O)cc1` (configuration not stated) (Tos-Cys(Bn)-Tyr-OH; configuration not given here), the T/C is, setting by setting: under setting [1], 103 % of control; under setting [2], 99 % of control; under setting [3], 99 % of control.

For the compound `S=C(c1c(Cl)cccc1Cl)N1CN(Cc2ccc(Cl)cc2)CN(Cc2ccc(Cl)cc2)C1`, the T/C is, setting by setting: under setting [4], 99 % of control; (dose: 100.0 mg/kg/injection, schedule: Q01DX009 (ip), vehicle: saline with Tween-80) 96 % of control; (dose: 200.0 mg/kg/injection, schedule: Q01DX009 (ip), vehicle: saline with Tween-80) 108 % of control.

Regarding `Nc1ncnc2ccccc12`, the T/C was 107 % of control (dose: 12.5 mg/kg/injection, schedule: Q01DX009 (ip), vehicle: Klucel (hydroxypropylcellulose) (HPC)); 89 % of control (dose: 25.0 mg/kg/injection, schedule: Q01DX009 (ip), vehicle: Klucel (hydroxypropylcellulose) (HPC)); 108 % of control and 89 % of control under setting [5]; 108 % of control under setting [6].

On to `Nc1nc(-c2cccnc2)cc(-c2cc(-c3cccnc3)nc(N)n2)n1`, for which the T/C by setting is: (dose: 60.0 mg/kg/injection, schedule: Q01DX005 (ip), vehicle: saline) 96 % of control; (dose: 120.0 mg/kg/injection, schedule: Q01DX005 (ip), vehicle: saline) 100 % of control.

As to `O=C(NCCO)c1ccc(O)cc1O`, the T/C by setting is: (dose: 60.0 mg/kg/injection, schedule: Q01DX005 (ip), vehicle: Klucel (hydroxypropylcellulose) (HPC)) 116 % of control; (dose: 120.0 mg/kg/injection, schedule: Q01DX005 (ip), vehicle: Klucel (hydroxypropylcellulose) (HPC)) 120 % of control; (dose: 240.0 mg/kg/injection, schedule: Q01DX005 (ip), vehicle: Klucel (hydroxypropylcellulose) (HPC)) 120 % of control.

With `CC(C)(C)c1ccc(NC(=O)Oc2ccccc2)cc1`, the T/C under setting [5] is 102 % of control, the T/C under setting [6] is 105 % of control and the T/C under setting [7] was 102 % of control.

On to `CC1=CC(=Nc2cc(Br)c(O)c(Br)c2)C=CC1=O`, for which the T/C was 100 % of control (dose: 6.25 mg/kg/injection, schedule: Q01DX005 (ip), vehicle: saline); 100 % of control under setting [8]; 105 % of control under setting [9].

Consider `CC1(C#N)N=C(c2ccccc2)c2ccccc2N1C(=O)Oc1ccccc1` (configuration not stated), for which the T/C runs as follows: under setting [10], 98 % of control; under setting [11], 98 % of control.

As to `CCOC(=O)CCN(C)C1CCCCC1C(=O)OCC` (configuration not stated), the T/C by setting is: (dose: 25.0 mg/kg/injection, schedule: Q01DX009 (ip), vehicle: saline) 100 % of control; (dose: 50.0 mg/kg/injection, schedule: Q01DX009 (ip), vehicle: saline) 101 % of control; (dose: 100.0 mg/kg/injection, schedule: Q01DX009 (ip), vehicle: saline) 107 % of control.

As to `CSc1c(C(=O)NC(C)C)cc(C(C)(C)C)cc1C(=O)NC(C)C`, the T/C under setting [5] is 89 % of control, the T/C under setting [6] was 86 % of control and the T/C under setting [7] was 89 % of control.

Take `CCN(CC)CCCC(C)N(C)CC(C)CCC1=C(C)CCCC1(C)C` (configuration not stated): the T/C by setting is: under setting [8], 97 % of control; under setting [9], 101 % of control; under setting [12], 104 % of control.

Turning to `COc1ccc(C[N+]2=Cc3cc(OC)c(OC)cc3CC2)cc1`, the T/C is 100 % of control (dose: 12.5 mg/kg/injection, schedule: Q01DX001 (ip), vehicle: saline + alcohol); 98 % of control (dose: 25.0 mg/kg/injection, schedule: Q01DX001 (ip), vehicle: saline + alcohol); 98 % of control (dose: 50.0 mg/kg/injection, schedule: Q01DX001 (ip), vehicle: saline + alcohol).

On to `CS(=O)(=O)Nc1cc(C(O)CNC2CC2)ccc1O` (configuration not stated), for which the T/C by setting is: (dose: 0.37 mg/kg/injection, schedule: Q01DX001 (ip), vehicle: saline) 96 % of control; (dose: 0.75 mg/kg/injection, schedule: Q01DX001 (ip), vehicle: saline) 98 % of control; (dose: 1.5 mg/kg/injection, schedule: Q01DX001 (ip), vehicle: saline) 100 % of control and 95 % of control.

As for `Cl[C](Cl)(Cl)[Hg][C](Cl)(Cl)Cl`, the T/C (dose: 1.56 mg/kg/injection, schedule: Q01DX009 (ip), vehicle: saline with Tween-80) is 95 % of control; the T/C (dose: 3.12 mg/kg/injection, schedule: Q01DX009 (ip), vehicle: saline with Tween-80) was 90 % of control and 96 % of control; the T/C (dose: 6.25 mg/kg/injection, schedule: Q01DX009 (ip), vehicle: saline with Tween-80) is 87 % of control.

On to `COP(=O)(OC)C1c2ccccc2-c2cccc(C(=O)O)c21` (configuration not stated), for which the T/C runs as follows: (dose: 50.0 mg/kg/injection, schedule: Q01DX005 (ip), vehicle: Klucel (hydroxypropylcellulose) (HPC)) 105 % of control; (dose: 100.0 mg/kg/injection, schedule: Q01DX005 (ip), vehicle: Klucel (hydroxypropylcellulose) (HPC)) 106 % of control; (dose: 200.0 mg/kg/injection, schedule: Q01DX005 (ip), vehicle: Klucel (hydroxypropylcellulose) (HPC)) 110 % of control.

As to `COc1ccc(Cc2cc3c(cc2OCCO)OCO3)cc1`, the T/C under setting [1] is 105 % of control, the T/C under setting [2] is 103 % of control and the T/C under setting [3] was 109 % of control.

Consider `COC(=O)C1(CS(C)=O)NC(=S)NC(=O)C1C#N` (configuration not stated), for which the T/C runs as follows: under setting [10], 106 % of control; under setting [11], 99 % of control; (dose: 240.0 mg/kg/injection, schedule: Q01DX005 (ip), vehicle: saline with Tween-80) 97 % of control.

For the compound `S[C@@H]1CCCN1`, the T/C was 97 % of control under setting [12]; 102 % of control (dose: 100.0 mg/kg/injection, schedule: Q01DX005 (ip), vehicle: saline); 99 % of control (dose: 200.0 mg/kg/injection, schedule: Q01DX005 (ip), vehicle: saline).

With `O=C1C=C[C@H](O)[C@@]2(CO)O[C@@H]12`, the T/C runs as follows: (dose: 1.25 mg/kg/injection, schedule: Q04DX002 (ip), vehicle: saline) 103 % of control; (dose: 2.5 mg/kg/injection, schedule: Q04DX002 (ip), vehicle: saline with Tween-80) 114 % of control; (dose: 2.5 mg/kg/injection, schedule: Q04DX002 (ip), vehicle: saline) 104 % of control.

Take `O=Cc1c2ccc(Cl)cc2nc2cc(Cl)ccc12`: the T/C was 100 % of control (dose: 25.0 mg/kg/injection, schedule: Q01DX001 (ip), vehicle: saline with Tween-80); 90 % of control (dose: 50.0 mg/kg/injection, schedule: Q01DX001 (ip), vehicle: saline with Tween-80); 100 % of control (dose: 100.0 mg/kg/injection, schedule: Q01DX001 (ip), vehicle: saline with Tween-80).

For `c1ccc2c(c1)[As]=c1ccccc1=[As]2` (configuration not stated), the T/C was 107 % of control (dose: 0.79 mg/kg/injection, schedule: Q01DX009 (ip), vehicle: saline); 105 % of control and 118 % of control (dose: 1.56 mg/kg/injection, schedule: Q01DX009 (ip), vehicle: saline); 122 % of control (dose: 3.12 mg/kg/injection, schedule: Q01DX009 (ip), vehicle: saline); 173 % of control (dose: 6.25 mg/kg/injection, schedule: Q01DX009 (ip), vehicle: saline).

Consider `CS(C)=NC(=Nc1ccc(Cl)cc1)c1ccccc1`, for which the T/C is 95 % of control (dose: 25.0 mg/kg/injection, schedule: Q01DX009 (ip), vehicle: saline with Tween-80) and 106 % of control under setting [4].

With `O=c1[nH]cc(N(CCCl)CCCl)c(=O)[nH]1`, the T/C by setting is: (dose: 0.05 mg/kg/injection, schedule: Q01DX009 (ip), vehicle: saline with Tween-80) 109 % of control; (dose: 0.08 mg/kg/injection, schedule: Q01DX009 (ip), vehicle: saline with Tween-80) 109 % of control; (dose: 0.39 mg/kg/injection, schedule: Q01DX009 (ip), vehicle: saline with Tween-80) 181 % of control; (dose: 0.65 mg/kg/injection, schedule: Q01DX009 (ip), vehicle: saline with Tween-80) 181 % of control; (dose: 1.1 mg/kg/injection, schedule: Q01DX009 (ip), vehicle: saline with Tween-80) 236 % of control; (dose: 1.8 mg/kg/injection, schedule: Q01DX009 (ip), vehicle: saline with Tween-80) 227 % of control. For the same compound, the T/C (dose: 3.0 mg/kg/injection, schedule: Q01DX009 (ip), vehicle: saline with Tween-80) was 118 % of control.

The values above are taken from PubChem BioAssay AID330 (DTP/NCI, 2004).
